Laboratory results: article PMC7170901, “Design and efficient synthesis of pyrazoline and isoxazole bridged indole C-glycoside hybrids as potential anticancer agents” (Scientific Reports, 2020)

Tests used:
Assay type in all cases: cell-based
MDA-MB-453 cells = assay: MTT cell viability assay in MDA-MB-453 cells; conditions: Homo sapiens, read-out: Cell Viability (%) ± SD; for viability at 1 µM: MDA-MB-453, 1 µM; for viability at 10 µM: MDA-MB-453, 10 µM; for viability at 25 µM: MDA-MB-453, 25 µM
Text: MDA-MB-231 represents a specific subtype, known as the triple negative breast cancer (TNBC). […] We also included normal mammary epithelial MCF-10A cells in our experiments to confirm if the growth-inhibitory activities of the selected compounds are truly cancer cell-specific. […] Furthermore, none of these compounds did have any growth inhibitory activity against normal breast epithelial cell (MCF-10A). The IC50 values for these compounds against MDA-MB-231 cells (Fig. 2) are also included in Table 4 for comparison. Cell viability assay was performed as per standard protocols. After 72 h of cell incubation in the presence or absence of each compound, cell viability was evaluated by using MTT ((3-(4,5-dimethylthiazol-2-yl)-2,5-diphenyltetrazolium bromide)) (Himedia Pvt. Ltd, India). In brief, this is a homogeneous, colorimetric method for determining the number of viable cells in proliferation, cytotoxicity or chemosensitivity assays. MTT is bio reduced by cells into a formazan product that is […]. After 72 h of compound treatment, the medium was removed and 100 μL of MTT (0.5 mg ml^−1 in media) was added to the cells and kept in the dark for 3 h at 37 °C in the CO2 incubator and the formazan formed was dissolved in 100 μL DMSO (Dimethyl Sulfoxide). The absorbance of the formazan product at 595 nm was measured directly from 96-well assay plates without additional processing using a multimode plate reader (Bio-Rad) (iMark, India), as absorbance is directly proportional to the number of viable cells in culture. The percentage of viable cells in each group is determined with respect to the untreated control cells.

[1] = tested on: MDA-MB-231 (human breast cancer) cell line; assay: MTT cell viability assay in MDA-MB-231 cells; conditions: Homo sapiens; for viability at 10 µM / viability at 25 µM / viability at 50 µM: MDA-MB-231, 72 h, 72 h, MTT, read-out: Cell Viability (%) ± SD; for viability at 10 µM: MDA-MB-231, 10 µM; for viability at 25 µM: MDA-MB-231, 25 µM; for viability at 50 µM: MDA-MB-231, 50 µM; for IC50: MDA-MB-231, MTT, treated for 48 h, 1, 5, 10, 25 and 50 µM
Method: IC50 values were determined by plotting values of percent cell viability against concentration of each of these compounds. […] The experiments were performed in triplicates, n = 3 and ± SE value was calculated for each data point.
The human breast cancer cell line MDA-MB-231 were cultured in Dulbecco’s Modified Eagle’s Medium (DMEM) (Gibco, St. Louis, USA) supplemented with 10% heat inactivated FBS (Fetal Bovine Serum, Gibco, USA) and 1% penicillin-streptomycin (Gibco Canada) in humidified CO2 incubator at 37 °C. The cells were maintained as a monolayer in 100 mm culture plate. The cells used for each experiment were of less than 8 passage number. Sub culturing of cells was performed every third day, followed by trypsin EDTA treatment.
Cell viability assay was performed as per standard protocols. […] Ltd, India). In brief, this is a homogeneous, colorimetric method for determining the number of viable cells in proliferation, cytotoxicity or chemosensitivity assays. MTT is bio reduced by cells into a formazan product that is soluble in the tissue culture medium. […] The absorbance of the formazan product at 595 nm was measured directly from 96-well assay plates without additional processing using a multimode plate reader (Bio-Rad) (iMark, India), as absorbance is directly proportional to the number of viable cells in culture. The percentage of viable cells in each group is determined with respect to the untreated control cells.

MCF-7 cells = assay: LDH cytotoxicity assay; conditions: MCF-7, 25 µM; for cytotoxicity at 25 µM: Homo sapiens, MCF7, 48 h, read-out: % Cytotoxicity (LDH release relative to maximum LDH control); for % Cytotoxicity (LDH release relative to maximum LDH control): 48 h, 25 µM
Text: When living cells treated with a cytotoxic compound, they could either stop growing and dividing, or die through either of two distinct processes i.e. necrosis or apoptosis. Basically, cells undergoing necrosis (accidental cell death) swell and lose membrane integrity before shutting down and releasing their intracellular contents into the surrounding environment. This type of cell death is usually triggered by external factors such as toxic chemical or traumatic physical events. When the cell membranes are damaged or compromised in any way, lactate dehydrogenase (LDH), a soluble yet stable enzyme found inside every living cell, gets released into the surrounding extracellular space. The presence of this enzyme in the culture medium can be used as a cell death marker. The relative amounts of live and dead cells within the medium can then be quantitated by measuring the amount of released LDH using a colorimetric or fluorometric LDH cytotoxicity assay.
Cytotoxicity was assessed with an LDH-cytotoxicity detection kit (Hi media, CCK036), Assays was performed according to assay protocol. Compound was taken at 25 μM concentration. The % of Cytotoxicity was calculated by this formula.
% Cytotoxicity = 100 × A − C/B − C, Where, A = Average absorbance of test. Average absorbance of background control (or vehicle control if applicable), B = Average absorbance of maximum LDH control − Average absorbance of volume correction control C = Average absorbance of untreated control − Average absorbance of background control.
Lactate Dehydrogenase Cell Assay Materials & Methods: (Himedia, product code; […]
Lactate dehydrogenase (LDH) is a cytoplasmic enzyme present in all mammalian cells. Plasma membrane of live cells is impermeable to LDH. However it is rapidly released into the culture medium when plasma membrane is damaged. The quantity of the leaked LDH is used as a measure of cell cytotoxicity. Due to low molecular weight (35kDa) LDH is easily released from the cells even with very minor damage or perturbations in the membrane. This makes the LDH release assay very sensitive.
This Kit has been designed for rapid determination of cell cytotoxicity using an enzyme coupled […]
Lactate Dehydrogenase (LDH) is based on an enzyme coupled reaction in which the LDH released from cells with damaged membrane reduces the tetrazolium dye to a colored formazan product. The reaction takes place in two steps - Step 1:
LDH catalyzes the conversion of lactate to pyruvate via reduction of NAD+ to NADH.
NADH thus generated reduces the tetrazolium dye to a colored formazan product which can be measured spectrophotometrically.
• Kit contents: CCK036(A) LDH reagent 5 x 5ml -20 °C in dark CCK036(B) Lysis solution 5ml -20 °C in dark
CCK036(C) Stop solution 25ml -20 °C in dark
• Cells in appropriate medium
• Adjustable pipettes and a repeat pipettor
• 96-well plate for culturing the cells
• 96-well plate reader capable of measuring the Absorbance at 450nm and more than […]
It is necessary to include different types of controls depending on application of LDH assay.
1. Maximum LDH control: It is recommended to perform maximum LDH estimation to determine total amount of LDH present in the cells.
2. Background control: Significant amount of LDH is present in the serum used for supplementing the culture medium. This contributes to the background absorbance / […]
without cells. Absorbance/fluorescence of background control wells should be subtracted from absorbance / fluorescence values of experimental wells to get corrected
3. Untreated control: Untreated control, also known as vehicle control should be included in the assay to obtain LDH values generated due to the solvent in which test compound is […]
(1 picture or pasted object on this page, not shown here) […]
dissolved. Untreated control wells contain the solvent at a concentration used for dissolving […]
• Preparation of cells: Freshly harvested MCF-7 cells for assay. Seeded in the 96well […]

Row | SMILES | viability at 1 µM (MDA-MB-453 cells) [%] | viability at 10 µM (MDA-MB-453 cells) [%] | viability at 25 µM (MDA-MB-453 cells) [%] | viability at 10 µM [1] [%] | viability at 25 µM [1] [%] | viability at 50 µM [1] [%] | IC50 [1] [µM] | cytotoxicity at 25 µM (MCF-7 cells) [%] | % Cytotoxicity (LDH release relative to maximum LDH control) (MCF-7 cells) [%]
1 | O=C(/C=C/c1c[nH]c2ccccc12)C[C@@H]1O[C@H](CO)[C@@H](O)[C@H](O)[C@H]1O [Compound 9, (E)-4-(1H-indol-3-yl)-1-((2S,3R,4R,5S,6R)-3,4,5-trihydroxy-6-(hydroxymethyl)tetrahydro-2H-pyran-2-yl)but-3-en-2-one] | 80.6 ± 8 | 76.4 ± 5.4 | 96.1 ± 35.7 | 71.1 ± 10.5 | 54 ± 11.2 | 36.3 ± 4.29 | 30.6 | 12.9 | 13
2 | O=C(/C=C/c1c[nH]c2ccc(Cl)cc12)C[C@@H]1O[C@H](CO)[C@@H](O)[C@H](O)[C@@H]1O [Compound 20, (E)-4-(5-chloro-1H-indol-3-yl)-1-((2S,3S,4R,5S,6R)-3,4,5-trihydroxy-6-(hydroxymethyl)tetrahydro-2H-pyran-2-yl)but-3-en-2-one] | 105 ± 8.1 | 74.8 ± 1.5 | 66.4 ± 3.2 | 56.7 ± 23.2 | 54.3 ± 16.3 | 62 ± 4.91 |  | 7.78 | 8
3 | OC[C@H]1O[C@@H](CC2=NNC(c3c[nH]c4ccccc34)C2)[C@H](O)[C@@H](O)[C@H]1O (stereo partly drawn) [Compound 25, (2 S,3 R,4 R,5 R,6 R)-2-((5-(1H-indol-3-yl)-4,5-dihydro-1H-pyrazol-3-yl)methyl)-6-(hydroxy-methyl)tetrahydro-2H-pyran-3,4,5-triol] | 88.8 ± 5.2 | 78.3 ± 4.7 | 69.6 ± 5.3 | 97.6 ± 3.36 | 54.2 ± 7.06 | 43.8 ± 13 | 35.5 | 21.8 | 22
4 | O=[N+]([O-])c1ccc2[nH]cc(-c3cc(C[C@@H]4O[C@H](CO)[C@@H](O)[C@H](O)[C@H]4O)no3)c2c1 [Compound 34, (2 R,3 S,4 R,5 R,6 S)-2-(hydroxymethyl)-6-((5-(5-nitro-1H-indol-3-yl)isoxazol-3-yl)methyl) tetrahydro-2H-pyran-3,4,5-triol] | 92.5 ± 4.6 | 80.9 ± 1.2 | 66.8 ± 1.7 | 68.4 ± 5.36 | 46.1 ± 3.32 | 43.4 ± 0.26 | 22.3 | 31.2 | 31
5 | OC[C@H]1O[C@@H](Cc2cc(-c3c[nH]c4ccccc34)on2)[C@H](O)[C@@H](O)[C@H]1O [Compound 37, (2 S,3 R,4 R,5 R,6 R)-2-((5-(1H-indol-3-yl)isoxazol-3-yl)methyl)-6-(hydroxymethyl) tetrahydro-2H-pyran-3,4,5-triol] | 95.4 ± 4.8 | 76.4 ± 5.4 | 96.1 ± 35.7 | 74.8 ± 10.7 | 76.4 ± 10.4 | 64.4 ± 7.77 |  | 36.4 | 
